Data as given in patent US6689767B2, “Triterpenes having antibacterial activity” (Regents of the University of Minnesota, priority 2000, dated 2004).

Assays:
Assay type in all cases: cell-based
Escherichia coli = test: Kirby-Bauer disk diffusion growth inhibition, Escherichia coli; conditions: for zone of inhibition at 0.125 µg/mL: read-out: Zone of inhibition Escherichia coli
Experimental: (§1) The compounds disclosed herein were tested for growth inhibition against four strains of bacteria: Escherichia coli, Staphylococcus aureus, methicillin-resistant Staphylococcus aureus, and Bacillus subtilis. […] They represent […]. E. coli is a gram-negative, non-spore forming, rod-shaped, opportunistic pathogen that resides in the human digestive tract. S. aureus is a gram positive coccus, is usually found morphologically as a […], and is an opportunistic human pathogen, often residing on or in the skin. B. subtilis is a gram positive spore-forming rod. Its native environment is the soil. The chemicals were tested for growth-inhibition of the bacteria by the Kirby-Bauer method. See, e.g., Microbiology, third edition; Lansing M. Prescott, John P. Harley, and Donald A. Klein; Wm. C. Brown Publishers.
(§2) Mueller-Hinton agar (Difco Lab, Michigan) was prepared according to the manufacturer's directions, and 20 ml was dispensed in each sterile petri dish. Sterile nutrient broth (Difco Lab, Michigan) was also prepared according to the manufacturer's directions.
(§3) Bacteria were grown in liquid nutrient broth for 18 hours at 37° C. until they were turbid.
(§4) An aliquot of 0.5 ml of cultured bacteria was aseptically transferred to the surface of a Mueller-Hinton agar plat, and spread using a cotton-tipped swab. Plates were then allowed to dry for 5 minutes. Then a 10 mm diameter filter paper disk impregnated with the test chemical was placed with sterile forceps on the plate. The disks were impregnated with 100 μl of a solution of the test compound in DMSO or in water, at the indicated concentrations in Table 1.
(§5) The zones of inhibition were measured after 18 hours growth at 37° C. Tests were done in triplicate.
(§6) Additional compounds were tested for activity against E. coli, laboratory strain S. aureus (not methicillin resistant), and B. subtilis. The compounds were tested by the disk diffusion method, as in Example 1, with application of a 10 mg/mil solution of the test compound in DMSO.

Staphylococcus aureus = test: Kirby-Bauer disk diffusion growth inhibition, Staphylococcus aureus; conditions: for zone of inhibition at 0.125 µg/mL: read-out: Zone of inhibition Staphylococcus aureus
Experimental: as §1, §2, §3, §4, §5, §6
Derivatives of lupeol were tested for inhibition of bacterial growth using the Kirby-Bauer disk diffusion method and by growth in liquid culture. For the disk diffusion method, compounds were dissolved in DMSO and 100 μl was added to the 10 mm filter paper disk. The amount of compound applied to the disk varied. The amount applied for each compound was as follows: lupeol (50 μg), lupeol-3-maleate (15 μg), lupeol-3-thiodiglycolate (15 μg), lupeol-3-dimethyl succinate (60 μg), lupeol-3-phosphate (30 μg), lupenone (50 μg), lupenon-3-oxime (50 μg), lupeol-3-amine (50 μg), lupenon-1,2-ene-2-ol (50 μg). In liquid culture, the compounds were dissolved in DMSO at 1 mg/ml and then 100 μl was added to 7 ml of sterile broth, along with a 1/200 dilution of freshly grown bacterial liquid culture.

Bacillus subtilis = test: Kirby-Bauer disk diffusion growth inhibition, Bacillus subtilis; conditions: for zone of inhibition at 0.125 µg/mL: read-out: Zone of inhibition Bacillus subtilis
Experimental: as §1, §2, §3, §4, §5, §6

[1] = 125 ng/ml in water, 100 μl on 10 mm disk, 18 hours 37° C.
[2] = Escherichia coli, 125 ng/ml in water, 100 μl on 10 mm disk, 18 hours 37° C.
[3] = Staphylococcus aureus, 125 ng/ml in water, 100 μl on 10 mm disk, 18 hours 37° C.
[4] = Bacillus subtilis, 125 ng/ml in water, 100 μl on 10 mm disk, 18 hours 37° C.

Compound	Zone of inhibition Escherichia coli (Escherichia coli; [1]) [mm]	Zone of inhibition Staphylococcus aureus (Staphylococcus aureus; [1]) [mm]	Zone of inhibition Bacillus subtilis (Bacillus subtilis; [1]) [mm]	further results
C=C(C)[C@@H]1CC[C@]2(COC(=O)[C@@H]3CCCN3)CC[C@]3(C)[C@H](CC[C@@H]4[C@@]5(C)CC[C@H](OC(=O)[C@@H]6CCCN6)C(C)(C)[C@@H]5CC[C@]43C)[C@@H]12 [Betulin Di-(L-proline) ester]	0	0	0	
C=C(C)C1CCC2(COC(=O)C(N)Cc3ccccc3)CCC3(C)C(CCC4C5(C)CCC(OC(=O)C(N)Cc6ccccc6)C(C)(C)C5CCC43C)C12 (stereo not drawn) [Betulin-3,28-diphenylalanine ester]	0	0	0	
C=C(C)[C@@H]1CC[C@]2(CO)CC[C@]3(C)[C@H](CC[C@@H]4[C@@]5(C)CC[C@H](O)C(C)(C)[C@@H]5CC[C@]43C)[C@@H]12 [Betulin]				zone of inhibition at 1000 µg/mL (Escherichia coli; Escherichia coli, 1 mg/ml in DMSO, 100 μl on 10 mm disk, 18 hours 37° C.): 0 mm; zone of inhibition at 1000 µg/mL (Staphylococcus aureus; Staphylococcus aureus, 1 mg/ml in DMSO, 100 μl on 10 mm disk, 18 hours 37° C.): 0 mm; zone of inhibition at 1000 µg/mL (Bacillus subtilis; Bacillus subtilis, 1 mg/ml in DMSO, 100 μl on 10 mm disk, 18 hours 37° C.): 0 mm
C=C(C)C1CCC2(C)CCC3(C)C(CCC4C5(C)CCC(OC(=O)c6ccccc6C(=O)O)C(C)(C)C5CCC43C)C12 (stereo not drawn) [Lupeol-3-phthalate]				zone of inhibition at 0.125 µg/mL (Escherichia coli; [2]): 0 mm; zone of inhibition at 0.125 µg/mL (Staphylococcus aureus; [3]): 0 mm; zone of inhibition at 0.125 µg/mL (Bacillus subtilis; [4]): 0 mm
C=C(C)C1CCC2(C)CCC3(C)C(CCC4C5(C)CCC(OC(=O)CCC(=O)O)C(C)(C)C5CCC43C)C12 (stereo not drawn) [Lupeol-3-succinate]				zone of inhibition at 0.125 µg/mL (Escherichia coli; [2]): 0 mm; zone of inhibition at 0.125 µg/mL (Staphylococcus aureus; [3]): 0 mm; zone of inhibition at 0.125 µg/mL (Bacillus subtilis; [4]): 0 mm
CC1(C)S[C@@H]2[C@H](NC(=O)Cc3ccccc3)C(=O)N2[C@H]1C(=O)O [Pencillin G, reference compound]				Zone of inhibition Escherichia coli (Escherichia coli; control antibiotic, 10 units): 0 mm; Zone of inhibition Staphylococcus aureus (Staphylococcus aureus; control antibiotic, 10 units): 40.0 mm; Zone of inhibition Bacillus subtilis (Bacillus subtilis; control antibiotic, 10 units): 25.0 mm
CN(C)[C@@H]1C(O)=C(C(N)=O)C(=O)[C@@]2(O)C(O)=C3C(=O)c4c(O)cccc4[C@@](C)(O)[C@H]3C[C@@H]12 [Tetracycline, reference compound]				zone of inhibition at 30 µg/disc (Escherichia coli; Escherichia coli, control antibiotic, 30 mcg): 19 mm; zone of inhibition at 30 µg/disc (Staphylococcus aureus; Staphylococcus aureus, control antibiotic, 30 mcg): 26 mm; zone of inhibition at 30 µg/disc (Bacillus subtilis; Bacillus subtilis, control antibiotic, 30 mcg): 31 mm
C[C@H]1[C@H](C)CC[C@]2(C(=O)O)CC[C@]3(C)C(=CC[C@@H]4[C@@]5(C)CC[C@H](O)C(C)(C)[C@@H]5CC[C@]43C)[C@H]12 [Ursolic Acid]				zone of inhibition at 0.125 µg/mL (Escherichia coli; [2]): 0 mm; zone of inhibition at 0.125 µg/mL (Staphylococcus aureus; [3]): 0 mm; zone of inhibition at 0.125 µg/mL (Bacillus subtilis; [4]): 0 mm
Allobetulin 2-alanine ester	0	0	0	
Allobetulin 2-valine-ester	0	0	0	
Allobetulin ethanol amine	0	0	0	
Allobetulin glycine	0	0	0	
Allobetulin-3-phthalate [Allobetulin 3-phthalate]	0	0	0	
Allobetulin-3-poly (ethylene glycol) bis (carboxymethyl) ether ester	0	0	0	
